pIC50: −log10 of the molar value.
Biological target: T1, Toll-like receptor 7 (Mus musculus, UniProt P58681)
T1 sequence (P58681 whole entry): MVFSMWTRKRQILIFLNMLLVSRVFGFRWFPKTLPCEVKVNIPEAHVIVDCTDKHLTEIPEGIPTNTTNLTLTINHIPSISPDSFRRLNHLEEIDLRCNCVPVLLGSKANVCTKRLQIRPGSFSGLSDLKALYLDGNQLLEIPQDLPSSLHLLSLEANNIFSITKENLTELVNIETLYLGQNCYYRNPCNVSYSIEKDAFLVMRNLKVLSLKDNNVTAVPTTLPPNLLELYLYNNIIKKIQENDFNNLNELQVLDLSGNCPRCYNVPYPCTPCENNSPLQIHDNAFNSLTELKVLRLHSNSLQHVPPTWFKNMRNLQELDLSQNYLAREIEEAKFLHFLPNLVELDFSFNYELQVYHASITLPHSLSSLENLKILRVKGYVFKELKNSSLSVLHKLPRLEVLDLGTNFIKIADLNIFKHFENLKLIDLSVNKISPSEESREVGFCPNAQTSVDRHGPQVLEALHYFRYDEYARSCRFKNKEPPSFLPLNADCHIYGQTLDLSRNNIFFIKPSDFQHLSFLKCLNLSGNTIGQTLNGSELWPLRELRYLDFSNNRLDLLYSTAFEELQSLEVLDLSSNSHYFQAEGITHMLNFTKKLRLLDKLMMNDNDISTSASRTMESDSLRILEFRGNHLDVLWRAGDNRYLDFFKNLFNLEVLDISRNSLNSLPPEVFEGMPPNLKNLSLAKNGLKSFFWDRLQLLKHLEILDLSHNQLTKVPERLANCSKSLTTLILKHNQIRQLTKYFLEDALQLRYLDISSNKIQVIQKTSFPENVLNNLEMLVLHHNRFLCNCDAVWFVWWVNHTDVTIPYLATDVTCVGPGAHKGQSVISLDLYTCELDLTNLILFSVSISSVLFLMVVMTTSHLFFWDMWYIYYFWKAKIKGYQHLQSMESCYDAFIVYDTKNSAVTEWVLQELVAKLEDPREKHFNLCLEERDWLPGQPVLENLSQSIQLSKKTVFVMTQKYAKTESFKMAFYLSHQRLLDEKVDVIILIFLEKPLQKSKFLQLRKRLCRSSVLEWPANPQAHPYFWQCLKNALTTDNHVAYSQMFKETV
Test: Antagonist activity at TLR7 in mouse splenocytes assessed as inhibition of ssRNA40-induced IL6 production
Type: cell-based, Splenocyte
Settings: not given

pIC50	SMILES
5.92	Cn1nc(-c2ccc(OCC34CCC(O)(CC3)CC4)c(F)c2)c2cnc(N)nc21
7.42	Cn1nc(-c2ccc(OCC34CCC(N)(CC3)CC4)c(F)c2)c2cnc(N)nc21
7.01	Cn1nc(-c2ccc(OCCCC3CCNCC3)c(F)c2)c2cnc(N)nc21
6.66	Cn1nc(-c2ccc(OCC3CCNCC3)c(F)c2)c2cnc(N)nc21

Biological target: T2, Toll-like receptor 9 (Mus musculus, UniProt Q9EQU3)
T2 sequence (Q9EQU3 whole entry): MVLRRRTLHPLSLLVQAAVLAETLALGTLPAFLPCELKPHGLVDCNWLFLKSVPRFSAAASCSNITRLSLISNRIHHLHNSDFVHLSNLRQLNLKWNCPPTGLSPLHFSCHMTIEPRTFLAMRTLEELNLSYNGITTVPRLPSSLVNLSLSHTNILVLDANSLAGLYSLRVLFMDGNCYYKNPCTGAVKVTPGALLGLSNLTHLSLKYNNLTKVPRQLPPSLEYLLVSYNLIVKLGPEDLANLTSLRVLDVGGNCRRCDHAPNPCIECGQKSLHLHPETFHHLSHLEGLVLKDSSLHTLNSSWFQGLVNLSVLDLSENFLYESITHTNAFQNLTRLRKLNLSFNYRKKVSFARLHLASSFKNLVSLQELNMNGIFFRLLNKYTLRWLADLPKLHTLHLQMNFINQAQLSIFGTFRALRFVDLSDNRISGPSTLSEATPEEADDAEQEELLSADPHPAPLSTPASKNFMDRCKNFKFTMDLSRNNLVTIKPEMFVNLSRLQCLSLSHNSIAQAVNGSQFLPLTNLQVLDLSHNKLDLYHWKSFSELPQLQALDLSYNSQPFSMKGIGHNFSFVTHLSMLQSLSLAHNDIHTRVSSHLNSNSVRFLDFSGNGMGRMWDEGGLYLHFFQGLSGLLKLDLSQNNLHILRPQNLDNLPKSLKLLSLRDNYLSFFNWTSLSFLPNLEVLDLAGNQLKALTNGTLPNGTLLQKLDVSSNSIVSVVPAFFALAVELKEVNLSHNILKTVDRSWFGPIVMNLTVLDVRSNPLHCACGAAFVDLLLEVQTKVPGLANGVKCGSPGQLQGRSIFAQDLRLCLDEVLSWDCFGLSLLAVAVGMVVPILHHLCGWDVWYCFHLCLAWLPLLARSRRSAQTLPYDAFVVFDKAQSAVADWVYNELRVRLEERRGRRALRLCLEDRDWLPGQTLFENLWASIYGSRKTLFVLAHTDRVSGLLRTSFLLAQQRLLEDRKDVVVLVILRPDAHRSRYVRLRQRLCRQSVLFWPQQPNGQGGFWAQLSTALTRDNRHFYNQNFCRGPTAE
Test: Antagonist activity at TLR9 in mouse splenocytes assessed as inhibition of CpG1585-induced IL6 production
Type: cell-based, Splenocyte
Settings: not given

pIC50	SMILES
5.55	Cn1nc(-c2ccc(OCC34CCC(O)(CC3)CC4)c(F)c2)c2cnc(N)nc21
6.08	Cn1nc(-c2ccc(OCC34CCC(N)(CC3)CC4)c(F)c2)c2cnc(N)nc21
5.89	Cn1nc(-c2ccc(OCCCC3CCNCC3)c(F)c2)c2cnc(N)nc21
5.70	Cn1nc(-c2ccc(OCC3CCNCC3)c(F)c2)c2cnc(N)nc21

Biological target: T3, Toll-like receptor 9 (Homo sapiens, UniProt Q9NR96)
T3 sequence (Q9NR96 whole entry): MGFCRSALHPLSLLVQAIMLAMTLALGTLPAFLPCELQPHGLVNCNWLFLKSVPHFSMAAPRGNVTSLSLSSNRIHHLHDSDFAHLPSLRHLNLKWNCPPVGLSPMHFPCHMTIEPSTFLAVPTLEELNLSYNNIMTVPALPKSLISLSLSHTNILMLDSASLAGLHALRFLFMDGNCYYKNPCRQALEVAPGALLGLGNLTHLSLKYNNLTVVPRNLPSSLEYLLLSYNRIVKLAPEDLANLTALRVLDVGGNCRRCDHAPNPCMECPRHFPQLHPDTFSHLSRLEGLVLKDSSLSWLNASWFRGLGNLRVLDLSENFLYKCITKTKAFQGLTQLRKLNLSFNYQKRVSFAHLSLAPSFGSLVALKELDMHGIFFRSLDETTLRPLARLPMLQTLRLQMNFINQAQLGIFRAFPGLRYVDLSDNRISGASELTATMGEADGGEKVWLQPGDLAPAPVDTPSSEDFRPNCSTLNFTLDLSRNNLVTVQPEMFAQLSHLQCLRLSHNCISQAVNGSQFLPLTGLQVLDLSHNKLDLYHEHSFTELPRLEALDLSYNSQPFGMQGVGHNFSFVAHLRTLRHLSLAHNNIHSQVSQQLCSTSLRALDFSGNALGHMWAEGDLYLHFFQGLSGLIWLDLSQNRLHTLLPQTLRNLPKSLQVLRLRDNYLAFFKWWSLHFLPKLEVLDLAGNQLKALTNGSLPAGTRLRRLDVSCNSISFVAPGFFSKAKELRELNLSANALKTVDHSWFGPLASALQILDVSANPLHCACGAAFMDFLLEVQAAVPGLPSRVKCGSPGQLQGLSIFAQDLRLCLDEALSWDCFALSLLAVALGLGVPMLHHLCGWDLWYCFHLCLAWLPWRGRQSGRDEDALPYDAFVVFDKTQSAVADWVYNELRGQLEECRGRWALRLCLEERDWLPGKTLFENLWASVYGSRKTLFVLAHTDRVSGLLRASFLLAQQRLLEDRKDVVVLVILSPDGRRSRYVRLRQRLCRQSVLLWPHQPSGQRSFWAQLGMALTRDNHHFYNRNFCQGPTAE
Test: Antagonist activity at TLR9 in human PBMC assessed as inhibition of ODN2216-induced IFNalpha production
Type: tissue-based
Settings: not given

pIC50	SMILES
5.28	Cn1nc(-c2ccc(OCC34CCC(O)(CC3)CC4)c(F)c2)c2cnc(N)nc21
5.57	Cn1nc(-c2ccc(OCC34CCC(N)(CC3)CC4)c(F)c2)c2cnc(N)nc21
5.64	Cn1nc(-c2ccc(OCCCC3CCNCC3)c(F)c2)c2cnc(N)nc21
5.47	Cn1nc(-c2ccc(OCC3CCNCC3)c(F)c2)c2cnc(N)nc21

Tested on: not listed separately
Test: AUC in BALB/c mouse at 20 mg/kg, po
Type: ADME, organism-based
Parameters: dose 20 mg/kg
Settings: in vivo

AUC [µM·h]	SMILES
3.05	Cn1nc(-c2ccc(OCC34CCC(N)(CC3)CC4)c(F)c2)c2cnc(N)nc21

Tested on: not listed separately
Test: Cmax in BALB/c mouse at 20 mg/kg, po
Type: ADME, organism-based
Parameters: route oral, dose 20 mg/kg
Settings: in vivo

Cmax [µM]	SMILES
0.506	Cn1nc(-c2ccc(OCC34CCC(N)(CC3)CC4)c(F)c2)c2cnc(N)nc21

Tested on: not listed separately
Test: Clearance in BALB/c mouse at 5 mg/kg, iv
Type: ADME, organism-based
Settings: in vivo

clearance [L/h/kg]	SMILES
5.88	Cn1nc(-c2ccc(OCC34CCC(N)(CC3)CC4)c(F)c2)c2cnc(N)nc21
9.9	Cn1nc(-c2ccc(OCCCC3CCNCC3)c(F)c2)c2cnc(N)nc21

Tested on: not listed separately
Test: Volume of distribution at steady state in BALB/c mouse at 5 mg/kg, iv
Type: ADME, organism-based
Settings: in vivo, read-out: Vdss

Vd [L/kg]	SMILES
15	Cn1nc(-c2ccc(OCC34CCC(N)(CC3)CC4)c(F)c2)c2cnc(N)nc21
29	Cn1nc(-c2ccc(OCCCC3CCNCC3)c(F)c2)c2cnc(N)nc21

Tested on: not listed separately
Test: Terminal half life in BALB/c mouse at 5 mg/kg, iv
Type: ADME, organism-based
Settings: in vivo, read-out: beta t1/2 (converted)

half-life [h]	SMILES
4.1	Cn1nc(-c2ccc(OCC34CCC(N)(CC3)CC4)c(F)c2)c2cnc(N)nc21
5.9	Cn1nc(-c2ccc(OCCCC3CCNCC3)c(F)c2)c2cnc(N)nc21

Tested on: not listed separately
Test: Oral bioavailability in BALB/c mouse at 20 mg/kg
Type: ADME, organism-based
Settings: in vivo

bioavailability [%]	SMILES
36	Cn1nc(-c2ccc(OCC34CCC(N)(CC3)CC4)c(F)c2)c2cnc(N)nc21
0	Cn1nc(-c2ccc(OCCCC3CCNCC3)c(F)c2)c2cnc(N)nc21

Tested on: not listed separately
Test: Drug uptake in 129Sv mouse at 30 mg/kg, ip measured after 2 hrs
Type: ADME, organism-based
Settings: in vivo, read-out: Drug uptake

concentration at 2 h [µM]	SMILES
1.5	Cn1nc(-c2ccc(OCCCC3CCNCC3)c(F)c2)c2cnc(N)nc21

— ChEMBL document CHEMBL4725311, “Discovery of potent, orally bioavailable in vivo efficacious antagonists of the TLR7/8 pathway” (Bioorg Med Chem Lett, 2020)
